Numbered stars: 1 amine (or outer) side, 2 acyl side, 3 side chain; on linkers, the order of the positions; unused ones are H or OH. Bridge positions count the residues as written; N and C are the ends. Square brackets hold non-standard residues; d marks the D form. Side chains are listed from the residue outwards. Peptide text beside a SMILES is read from it. * marks the point of attachment. Ethylenediamine = C(CN[*:2])N[*:1]; Hyp = O=C(O)[C@@H]1C[C@@H](O)CN1; Phg = N[C@H](C(=O)O)c1ccccc1; CO = O=C([*:1])[*:2]; Bn = c1ccc(C*)cc1
Columns and labels:
sstr1 receptor = sstr1 receptor (Homo sapiens, UniProt P30872); conditions: literature, background; cited from earlier work
sstr2 receptor = sstr2 receptor (Homo sapiens, UniProt P30874); conditions: literature, background; cited from earlier work
sstr3 receptor = sstr3 receptor (Homo sapiens, UniProt P32745); conditions: literature, background; cited from earlier work
sstr4 receptor = sstr4 receptor (Homo sapiens, UniProt P31391); conditions: literature, background; cited from earlier work
[1] = Stability in 90% human serum

sstr1 receptor, sequence (P30872 whole entry): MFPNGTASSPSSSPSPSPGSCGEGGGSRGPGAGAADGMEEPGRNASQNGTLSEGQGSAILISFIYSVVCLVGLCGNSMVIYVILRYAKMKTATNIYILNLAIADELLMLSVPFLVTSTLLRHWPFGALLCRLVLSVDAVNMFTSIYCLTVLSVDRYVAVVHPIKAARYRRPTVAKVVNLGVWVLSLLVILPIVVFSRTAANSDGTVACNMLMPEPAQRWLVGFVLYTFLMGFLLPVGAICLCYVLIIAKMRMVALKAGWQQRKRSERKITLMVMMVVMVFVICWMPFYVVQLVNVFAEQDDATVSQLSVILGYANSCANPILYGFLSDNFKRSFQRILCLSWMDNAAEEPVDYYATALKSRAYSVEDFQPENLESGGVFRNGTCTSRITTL
sstr4 receptor, sequence (P31391 whole entry): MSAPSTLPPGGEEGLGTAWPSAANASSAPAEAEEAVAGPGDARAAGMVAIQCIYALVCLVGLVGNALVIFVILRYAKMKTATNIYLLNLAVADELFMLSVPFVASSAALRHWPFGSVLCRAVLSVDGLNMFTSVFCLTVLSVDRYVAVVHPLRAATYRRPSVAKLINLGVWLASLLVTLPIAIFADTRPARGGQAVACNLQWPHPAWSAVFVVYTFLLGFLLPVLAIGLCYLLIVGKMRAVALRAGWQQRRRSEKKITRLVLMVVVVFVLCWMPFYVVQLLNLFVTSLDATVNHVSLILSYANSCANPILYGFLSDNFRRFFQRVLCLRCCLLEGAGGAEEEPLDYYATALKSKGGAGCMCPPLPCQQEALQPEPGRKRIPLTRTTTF
sstr3 receptor, sequence (P32745 whole entry): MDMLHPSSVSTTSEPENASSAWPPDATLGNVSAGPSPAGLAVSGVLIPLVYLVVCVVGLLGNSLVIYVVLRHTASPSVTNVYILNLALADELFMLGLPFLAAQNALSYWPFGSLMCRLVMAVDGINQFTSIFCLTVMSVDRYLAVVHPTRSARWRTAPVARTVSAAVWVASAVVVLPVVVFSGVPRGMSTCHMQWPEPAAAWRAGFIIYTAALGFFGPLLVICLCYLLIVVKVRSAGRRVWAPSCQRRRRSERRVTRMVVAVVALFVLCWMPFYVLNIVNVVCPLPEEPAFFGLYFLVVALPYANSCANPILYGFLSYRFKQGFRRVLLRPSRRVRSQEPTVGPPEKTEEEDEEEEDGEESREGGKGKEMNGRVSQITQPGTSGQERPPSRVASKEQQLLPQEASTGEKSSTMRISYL
sstr2 receptor, sequence (P30874 whole entry): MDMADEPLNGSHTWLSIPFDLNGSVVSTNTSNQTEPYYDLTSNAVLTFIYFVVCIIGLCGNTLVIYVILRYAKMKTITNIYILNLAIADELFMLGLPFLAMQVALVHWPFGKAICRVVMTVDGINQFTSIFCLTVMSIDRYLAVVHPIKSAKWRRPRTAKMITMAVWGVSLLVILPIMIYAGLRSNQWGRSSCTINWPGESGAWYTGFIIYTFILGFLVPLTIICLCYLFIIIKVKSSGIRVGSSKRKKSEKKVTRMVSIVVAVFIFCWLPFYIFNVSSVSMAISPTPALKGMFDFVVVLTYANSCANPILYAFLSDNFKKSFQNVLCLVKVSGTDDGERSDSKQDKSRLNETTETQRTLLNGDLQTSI

SMILES | half-life [1] [h] | affinity for the sstr1 receptor (sstr1 receptor) | affinity for the sstr2 receptor (sstr2 receptor) | affinity for the sstr3 receptor (sstr3 receptor) | affinity for the sstr4 receptor (sstr4 receptor)
CC(C)[C@@H]1NC(=O)[C@H](CCCCN)NC(=O)[C@@H](Cc2c[nH]c3ccccc23)NC(=O)[C@H](Cc2ccc(O)cc2)NC(=O)[C@@H](NC(=O)[C@H](N)Cc2ccccc2)CSSC[C@@H](C(=O)N[C@@H](Cc2c[nH]c3ccccc23)C(N)=O)NC1=O [vapreotide] (H-[dF]CY[dW]KVCW-NH2; disulfide 2-7) | – | do not bind | high affinity | moderate-low affinity | do not bind
CC(C)[C@@H]1NC(=O)[C@H](CCCCN)NC(=O)[C@@H](Cc2c[nH]c3ccccc23)NC(=O)[C@H](Cc2ccc(O)cc2)NC(=O)[C@@H](NC(=O)[C@H](N)Cc2ccc3ccccc3c2)CSSC[C@@H](C(=O)N[C@H](C(N)=O)[C@@H](C)O)NC1=O [lanreotide] | – | do not bind | high affinity | moderate-low affinity | do not bind
CCCCCCCCCCCCCCCC(=O)NCCCC[C@@H]1NC(=O)[C@@H](NC(=O)CNC(=O)[C@H](C)N)CSSC[C@@H](C(=O)O)NC(=O)[C@H](CO)NC(=O)[C@H]([C@@H](C)O)NC(=O)[C@H](Cc2ccccc2)NC(=O)[C@H]([C@@H](C)O)NC(=O)[C@H](CCCCN)NC(=O)[C@H](Cc2c[nH]c3ccccc23)NC(=O)[C@H](Cc2ccccc2)NC(=O)[C@H](Cc2ccccc2)NC(=O)[C@H](CC(N)=O)NC1=O [Compound 21] | 41.7 | – | – | – | –
NCCCC[C@@H]1NC(=O)[C@@H](Cc2c[nH]c3ccccc23)NC(=O)[C@H](c2ccccc2)NC(=O)[C@@H]2C[C@@H](OC(=O)NCCN)CN2C(=O)[C@H](Cc2ccccc2)NC(=O)[C@H](Cc2ccc(OCc3ccccc3)cc2)NC1=O [pasireotide] (cyclo([Hyp]([CO-Ethylenediamine])[Phg][dW]KY(Bn)F)) | – | – | an order of magnitude lower | – | lost
Cc1cc(C)c(C[C@@H]2NC(=O)[C@H](CC(N)=O)NC(=O)[C@H](CCCCN)NC(=O)[C@@H](NC(=O)CNC(=O)[C@H](C)N)CSSC[C@@H](C(=O)O)NC(=O)[C@H](CO)NC(=O)[C@H]([C@@H](C)O)NC(=O)[C@H](Cc3c(C)cc(C)cc3C)NC(=O)[C@H]([C@@H](C)O)NC(=O)[C@H](CCCCN)NC(=O)[C@H](Cc3c[nH]c4ccccc34)NC(=O)[C@H](Cc3c(C)cc(C)cc3C)NC2=O)c(C)c1 [Compound 30] | 93.3 | – | – | – | –
C[C@@H](O)[C@@H]1NC(=O)[C@H](CCCCN)NC(=O)[C@@H](Cc2c[nH]c3ccccc23)NC(=O)[C@H](Cc2ccccc2)NC(=O)[C@@H](NC(=O)[C@H](N)Cc2ccccc2)CSSC[C@@H](C(=O)N[C@H](CO)[C@@H](C)O)NC1=O [octreotide] | – | do not bind | high affinity | moderate-low affinity | do not bind

Now from value to compound, other results behind:

half-life [1] [h] | SMILES | affinity for the sstr1 receptor (sstr1 receptor) | affinity for the sstr2 receptor (sstr2 receptor) | affinity for the sstr3 receptor (sstr3 receptor) | affinity for the sstr4 receptor (sstr4 receptor)
24.6 | Cc1cc(C)c(C[C@@H]2NC(=O)[C@H](Cc3ccccc3)NC(=O)[C@H](CC(N)=O)NC(=O)[C@H](CCCCN)NC(=O)[C@@H](NC(=O)CNC(=O)[C@H](C)N)CSSC[C@@H](C(=O)O)NC(=O)[C@H](CO)NC(=O)[C@H]([C@@H](C)O)NC(=O)[C@H](Cc3ccccc3)NC(=O)[C@H]([C@@H](C)O)NC(=O)[C@H](CCCCN)NC(=O)[C@@H](Cc3c[nH]c4ccccc34)NC2=O)c(C)c1 [Compound 25] | – | – | – | –
41 | Cc1cc(C)c(C[C@@H]2NC(=O)[C@H]([C@@H](C)O)NC(=O)[C@H](CCCCN)NC(=O)[C@@H](Cc3c[nH]c4ccccc34)NC(=O)[C@H](Cc3ccccc3)NC(=O)[C@H](Cc3ccccc3)NC(=O)[C@H](CC(N)=O)NC(=O)[C@H](CCCCN)NC(=O)[C@@H](NC(=O)CNC(=O)[C@H](C)N)CSSC[C@@H](C(=O)O)NC(=O)[C@H](CO)NC(=O)[C@H]([C@@H](C)O)NC2=O)c(C)c1 [Compound 26] | – | – | – | –
43.9 | Cc1cc(C)c(C[C@@H]2NC(=O)[C@H](CC(N)=O)NC(=O)[C@H](CCCCN)NC(=O)[C@@H](NC(=O)CNC(=O)[C@H](C)N)CSSC[C@@H](C(=O)O)NC(=O)[C@H](CO)NC(=O)[C@H]([C@@H](C)O)NC(=O)[C@H](Cc3ccccc3)NC(=O)[C@H]([C@@H](C)O)NC(=O)[C@H](CCCCN)NC(=O)[C@H](Cc3c[nH]c4ccccc34)NC(=O)[C@H](Cc3c(C)cc(C)cc3C)NC2=O)c(C)c1 [Compound 27] | – | – | – | –
26.2 | Cc1cc(C)c(C[C@@H]2NC(=O)[C@H](CC(N)=O)NC(=O)[C@H](CCCCN)NC(=O)[C@@H](NC(=O)CNC(=O)[C@H](C)N)CSSC[C@@H](C(=O)O)NC(=O)[C@H](CO)NC(=O)[C@H]([C@@H](C)O)NC(=O)[C@H](Cc3ccccc3)NC(=O)[C@H]([C@@H](C)O)NC(=O)[C@H](CCCCN)NC(=O)[C@@H](Cc3c[nH]c4ccccc34)NC(=O)[C@H](Cc3ccccc3)NC2=O)c(C)c1 [Compound 24] | – | – | – | –
